Experimental findings from patent publication US20250115569A1, “SULFONAMIDE COMPOUNDS FOR THE TREATMENT OF NEUROLOGICAL CONDITIONS” (LARIO THERAPEUTICS LIMITED, priority 2021, published 2025) are described below.

The target in the first assay is Cav2.3 (Homo sapiens, UniProt Q15878). Nature of the assay: Human Cav2.3 channel calcium-influx assay. The following applies: Fluo8 fluorescence, HEK-293 T-Rex/Kir2.1/Cav2.3e cells, without pluronic acid, read-out: Cav2.3 (pIC50) (converted). The class given is cell-based. The method, boiled down: (§1)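 HEK-293 T-Rex/Kir2.1 cells with doxycycline (0.2 μg/mL)-inducible Cav2.3e plus Cavβ4-α2δ1, loaded with Fluo8 NW in 0 mM K+ Tyrode's. Compounds (8 points, top 30 μM, half-log, 0.3% final DMSO, n=4) preincubated 3 min at RT, then depolarized with 20 mM KCl/2 mM CaCl2 (final); fluorescence read 130 s.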
Sequence of Cav2.3 (Q15878 whole entry, looked up): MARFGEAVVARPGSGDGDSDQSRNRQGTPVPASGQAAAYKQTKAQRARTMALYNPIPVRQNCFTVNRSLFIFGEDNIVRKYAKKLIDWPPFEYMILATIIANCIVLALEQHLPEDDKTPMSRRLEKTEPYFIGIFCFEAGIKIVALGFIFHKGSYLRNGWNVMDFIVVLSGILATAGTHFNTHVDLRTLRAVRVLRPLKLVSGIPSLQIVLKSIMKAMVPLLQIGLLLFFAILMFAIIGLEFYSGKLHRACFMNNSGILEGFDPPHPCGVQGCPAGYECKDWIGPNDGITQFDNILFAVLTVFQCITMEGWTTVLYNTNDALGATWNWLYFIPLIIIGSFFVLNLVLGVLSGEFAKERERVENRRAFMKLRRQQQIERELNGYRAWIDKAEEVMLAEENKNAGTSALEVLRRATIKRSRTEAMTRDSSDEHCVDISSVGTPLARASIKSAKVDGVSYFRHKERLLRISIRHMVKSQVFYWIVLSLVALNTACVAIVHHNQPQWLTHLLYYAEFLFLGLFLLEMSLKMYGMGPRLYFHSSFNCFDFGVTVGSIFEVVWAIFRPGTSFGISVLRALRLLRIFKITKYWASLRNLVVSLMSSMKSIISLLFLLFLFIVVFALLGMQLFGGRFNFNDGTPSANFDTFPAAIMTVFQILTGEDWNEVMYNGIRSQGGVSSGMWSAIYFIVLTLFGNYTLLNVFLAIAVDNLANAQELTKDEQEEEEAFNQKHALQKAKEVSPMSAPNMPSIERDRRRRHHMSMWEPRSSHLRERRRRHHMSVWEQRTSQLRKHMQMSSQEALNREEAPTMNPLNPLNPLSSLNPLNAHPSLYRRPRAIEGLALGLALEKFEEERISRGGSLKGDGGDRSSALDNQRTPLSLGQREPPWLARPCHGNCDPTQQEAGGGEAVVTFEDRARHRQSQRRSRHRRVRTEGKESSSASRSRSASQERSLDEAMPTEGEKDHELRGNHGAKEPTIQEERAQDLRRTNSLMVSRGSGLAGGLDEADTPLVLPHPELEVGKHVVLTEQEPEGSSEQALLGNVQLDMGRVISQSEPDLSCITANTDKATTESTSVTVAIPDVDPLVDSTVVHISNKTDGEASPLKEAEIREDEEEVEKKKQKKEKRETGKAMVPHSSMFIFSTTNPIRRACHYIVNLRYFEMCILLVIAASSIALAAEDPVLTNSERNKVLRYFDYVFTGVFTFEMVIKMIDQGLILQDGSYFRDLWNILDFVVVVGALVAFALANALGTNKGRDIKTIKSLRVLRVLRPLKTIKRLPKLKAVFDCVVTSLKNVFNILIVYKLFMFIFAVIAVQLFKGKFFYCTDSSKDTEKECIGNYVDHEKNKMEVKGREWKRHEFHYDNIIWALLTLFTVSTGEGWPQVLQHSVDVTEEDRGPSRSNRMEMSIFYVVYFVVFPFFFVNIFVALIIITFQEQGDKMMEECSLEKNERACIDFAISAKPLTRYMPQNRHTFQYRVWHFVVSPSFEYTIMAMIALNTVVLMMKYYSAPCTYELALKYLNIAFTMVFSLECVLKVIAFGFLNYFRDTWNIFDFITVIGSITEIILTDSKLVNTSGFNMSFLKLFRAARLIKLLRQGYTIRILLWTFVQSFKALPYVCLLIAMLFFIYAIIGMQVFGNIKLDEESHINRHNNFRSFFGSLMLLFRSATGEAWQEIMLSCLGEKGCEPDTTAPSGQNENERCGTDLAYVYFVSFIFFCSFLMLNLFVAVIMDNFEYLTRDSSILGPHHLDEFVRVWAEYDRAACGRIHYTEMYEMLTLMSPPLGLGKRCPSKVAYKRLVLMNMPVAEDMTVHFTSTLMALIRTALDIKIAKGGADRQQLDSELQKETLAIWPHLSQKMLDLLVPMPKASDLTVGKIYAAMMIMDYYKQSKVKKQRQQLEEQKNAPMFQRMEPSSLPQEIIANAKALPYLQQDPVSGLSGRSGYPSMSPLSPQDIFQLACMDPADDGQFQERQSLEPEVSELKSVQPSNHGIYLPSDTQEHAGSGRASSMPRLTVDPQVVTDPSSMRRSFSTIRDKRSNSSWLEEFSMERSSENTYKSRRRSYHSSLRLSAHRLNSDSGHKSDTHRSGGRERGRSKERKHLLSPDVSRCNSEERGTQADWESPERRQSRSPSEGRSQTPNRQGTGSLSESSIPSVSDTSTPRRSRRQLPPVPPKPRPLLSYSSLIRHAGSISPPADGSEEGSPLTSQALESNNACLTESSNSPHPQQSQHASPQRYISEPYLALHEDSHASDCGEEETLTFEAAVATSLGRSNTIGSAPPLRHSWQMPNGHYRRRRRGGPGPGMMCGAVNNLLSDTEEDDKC
Turning to `CN(C(c1ccc(F)cc1)C(F)(F)F)S(=O)(=O)c1cncc(C#N)c1` (racemic) [Example 272, 5-Cyano-N-methyl-N-(2,2,2-trifluoro-1-(4-fluorophenyl)ethyl)pyridine-3-sulfonamide], the IC50 is 0.155 µM.
The same measure, in the same setting: in the case of `CN([C@@H](c1ccc(F)cc1)C(F)(F)F)S(=O)(=O)c1ccc(F)s1` (stereo in doubt) [Example 18, 5-fluoro-N-methyl-N-(2,2,2-trifluoro-1-(4-fluorophenyl)ethyl)thiophene-2-sulfonamide] it was 11.7 µM.
The same measure, in the same setting: in the case of `CN([C@H](c1ccc(F)cc1)C(F)(F)F)S(=O)(=O)c1ccc(F)s1` (stereo in doubt) [Example 19, 5-fluoro-N-methyl-N-(2,2,2-trifluoro-1-(4-fluorophenyl)ethyl)thiophene-2-sulfonamide] it was 2.4 µM; in that of `CCN(C(c1ccc(F)cc1)C(F)(F)F)S(=O)(=O)c1cncc(C(N)=O)c1` (stereo in doubt) [Example 52, (S)-5-(N-ethyl-N-(2,2,2-trifluoro-1-(4-fluorophenyl)ethyl)sulfamoyl)nicotinamide], 0.0955 µM; in that of `CCN(C(c1ccc(F)cc1)C(F)(F)F)S(=O)(=O)c1cncc(C(N)=O)c1` (stereo in doubt) [Example 53, (R)-5-(N-ethyl-N-(2,2,2-trifluoro-1-(4-fluorophenyl)ethyl)sulfamoyl)nicotinamide], 1.78 µM.
On the same count and under the same terms, in the case of `CN(C(c1ccc(F)cc1)C(F)(F)F)S(=O)(=O)c1ccc(Cl)s1` (stereo not shown) [Example 1, 5-chloro-N-methyl-N-(2,2,2-trifluoro-1-(4-fluorophenyl)ethyl)thiophene-2-sulfonamide] it was 8.91 µM; in that of `CN(C(c1ccc(F)cc1)C(F)(F)F)S(=O)(=O)c1ccc(F)s1` (stereo not shown) [Example 17, 5-fluoro-N-methyl-N-(2,2,2-trifluoro-1-(4-fluorophenyl)ethyl)thiophene-2-sulfonamide], 3.63 µM.
As to `CCN(C(c1ccc(F)cc1)C(F)(F)F)S(=O)(=O)c1ccc(C#N)s1` (stereo not shown) [Example 21, 5-cyano-N-ethyl-N-(2,2,2-trifluoro-1-(4-fluorophenyl)ethyl)thiophene-2-sulfonamide], the IC50 is 0.437 µM.
On the same count and under the same terms, the value for `CCN(C(c1ccc(F)cc1)C(F)(F)F)S(=O)(=O)c1ccc(C(N)=O)s1` (stereo not shown) [Example 22, 5-(N-ethyl-N-(2,2,2-trifluoro-1-(4-fluorophenyl)ethyl)sulfamoyl)thiophene-2-carboxamide] was 0.741 µM.
On to `CCN(C(c1ccc(F)cc1)C(F)(F)F)S(=O)(=O)c1ccc(C(=O)N(C)C)s1` (stereo not shown) [Example 25, 5-(N-ethyl-N-(2,2,2-trifluoro-1-(4-fluorophenyl)ethyl)sulfamoyl)-N,N-dimethylthiophene-2-carboxamide], for which the IC50 was 0.282 µM.
On the same count and under the same terms, in the case of `CCN(C(c1ccc(F)cc1)C(F)(F)F)S(=O)(=O)c1ccc2c(c1)S(=O)(=O)CC2` (stereo not shown) [Example 28, N-ethyl-N-(2,2,2-trifluoro-1-(4-fluorophenyl)ethyl)-2,3-dihydrobenzo[b]thiophene-6-sulfonamide 1,1-dioxide] it was 0.355 µM; in that of `CCN([C@@H](c1ccc(F)cc1)C(F)(F)F)S(=O)(=O)c1cccc(C)n1` [Example 32, (S)—N-ethyl-6-methyl-N-(2,2,2-trifluoro-1-(4-fluorophenyl)ethyl)pyridine-2-sulfonamide], 3.8 µM.
For `CCN(C(c1ccc(F)cc1)C(F)(F)F)S(=O)(=O)c1cnc(C(N)=O)s1` (stereo not shown) [Example 46, 5-(N-ethyl-N-(2,2,2-trifluoro-1-(4-fluorophenyl)ethyl)sulfamoyl)thiazole-2-carboxamide], the IC50 was 0.468 µM.
Still for that read-out and setting: the value for `CCN(C(c1ccc(F)cc1)C(F)(F)F)S(=O)(=O)c1ccc(C2CNC2)s1` (stereo not shown) [Example 47, 5-(Azetidin-3-yl)-N-ethyl-N-(2,2,2-trifluoro-1-(4-fluorophenyl)ethyl)thiophene-2-sulfonamide] was 0.501 µM.

The test system of a further assay is Human Cav2.3 channel. Nature of the assay: Human Cav2.3 channel calcium-influx assay. The class given is cell-based. The settings on record: Fluo8 fluorescence, HEK-293 T-Rex/Kir2.1/Cav2.3e cells, without pluronic acid. The method, boiled down: as §1
With `CN([C@H](c1ccc(C(F)(F)F)cc1)C(F)(F)F)S(=O)(=O)c1ccc2nccn2c1` [Example 234, (R)—N-methyl-N-(2,2,2-trifluoro-1-(4-(trifluoromethyl)phenyl)ethyl)imidazo[1,2-a]pyridine-6-sulfonamide], the “Cav2.3 (pIC50)” value is recorded as 6.38.
Same read-out and setting: the value for `CN([C@H](c1ccc(C(F)(F)F)cc1)C(F)(F)F)S(=O)(=O)c1ccn2ccnc2c1` [Example 236, (R)—N-methyl-N-(2,2,2-trifluoro-1-(4-(trifluoromethyl)phenyl)ethyl)imidazo[1,2-a]pyridine-7-sulfonamide] was 7.33; that for `CCN(C(c1ccc(F)cc1F)C(F)(F)F)S(=O)(=O)c1cncc(C#N)c1` (stereo not shown) [Example 243, 5-cyano-N-(1-(2,4-difluorophenyl)-2,2,2-trifluoroethyl)-N-ethylpyridine-3-sulfonamide] was 5.19; that for `CCN(C(c1ccc(F)cc1F)C(F)(F)F)S(=O)(=O)c1cncc(C#N)c1` (stereo not shown) [Example 244, 5-cyano-N-(1-(2,4-difluorophenyl)-2,2,2-trifluoroethyl)-N-ethylpyridine-3-sulfonamide] was 5.84.
Consider `CCN([C@@H](c1ccc(F)c(C)c1)C(F)(F)F)S(=O)(=O)c1cncc(C#N)c1` [Example 245, (S)-5-cyano-N-ethyl-N-(2,2,2-trifluoro-1-(4-fluoro-3-methylphenyl)ethyl)pyridine-3-sulfonamide], for which the “Cav2.3 (pIC50)” value came to 5.70.
The same measure, in the same setting: in the case of `CCN([C@H](c1ccc(F)c(C)c1)C(F)(F)F)S(=O)(=O)c1cncc(C#N)c1` [Example 246, (R)-5-cyano-N-ethyl-N-(2,2,2-trifluoro-1-(4-fluoro-3-methylphenyl)ethyl)pyridine-3-sulfonamide] it was 7.31; in that of `CCN([C@@H](c1ccccc1C(F)(F)F)C(F)(F)F)S(=O)(=O)c1cncc(C#N)c1` [Example 247, (S)-5-cyano-N-ethyl-N-(2,2,2-trifluoro-1-(2-(trifluoromethyl)phenyl)ethyl)pyridine-3-sulfonamide], 5.11; in that of `CCN([C@H](c1ccccc1C(F)(F)F)C(F)(F)F)S(=O)(=O)c1cncc(C#N)c1` [Example 248, (R)-5-cyano-N-ethyl-N-(2,2,2-trifluoro-1-(2-(trifluoromethyl)phenyl)ethyl)pyridine-3-sulfonamide], 5.14.
The same measure, in the same setting: in the case of `CCN([C@@H](c1ccc(F)c(F)c1)C(F)(F)F)S(=O)(=O)c1cncc(C#N)c1` [Example 249, (S)-5-cyano-N-(1-(3,4-difluorophenyl)-2,2,2-trifluoroethyl)-N-ethylpyridine-3-sulfonamide] it was 5.73; in that of `CCN([C@H](c1ccc(F)c(F)c1)C(F)(F)F)S(=O)(=O)c1cncc(C#N)c1` [Example 250, (R)-5-cyano-N-(1-(3,4-difluorophenyl)-2,2,2-trifluoroethyl)-N-ethylpyridine-3-sulfonamide], 7.14; in that of `CCN([C@H](c1cccc(Cl)c1)C(F)(F)F)S(=O)(=O)c1cncc(C#N)c1` [Example 251, (R)—N-(1-(3-chlorophenyl)-2,2,2-trifluoroethyl)-5-cyano-N-ethylpyridine-3-sulfonamide], 7.18.
On the same count and under the same terms, in the case of `CCN([C@@H](c1cccc(Cl)c1)C(F)(F)F)S(=O)(=O)c1cncc(C#N)c1` [Example 252, (S)—N-(1-(3-chlorophenyl)-2,2,2-trifluoroethyl)-5-cyano-N-ethylpyridine-3-sulfonamide] it was 5.71; in that of `CCN([C@@H](c1ccc(F)c(Cl)c1)C(F)(F)F)S(=O)(=O)c1cncc(C#N)c1` [Example 253, (S)—N-(1-(3-chloro-4-fluorophenyl)-2,2,2-trifluoroethyl)-5-cyano-N-ethylpyridine-3-sulfonamide], 5.56; in that of `CCN([C@H](c1ccc(F)c(Cl)c1)C(F)(F)F)S(=O)(=O)c1cncc(C#N)c1` [Example 254, (R)—N-(1-(3-chloro-4-fluorophenyl)-2,2,2-trifluoroethyl)-5-cyano-N-ethylpyridine-3-sulfonamide], 7.33.
`CN(C(c1ccc(C(F)(F)F)c(F)c1)C(F)(F)F)S(=O)(=O)c1cncc(C#N)c1` (stereo not shown) [Example 255, 5-cyano-N-methyl-N-(2,2,2-trifluoro-1-(3-fluoro-4-(trifluoromethyl)phenyl)ethyl)pyridine-3-sulfonamide]: the “Cav2.3 (pIC50)” value is given as 6.96.
The same measure, in the same setting: in the case of `CCN([C@@H](c1ccc(F)c(OC)c1)C(F)(F)F)S(=O)(=O)c1cncc(C#N)c1` [Example 258, (S)-5-cyano-N-ethyl-N-(2,2,2-trifluoro-1-(4-fluoro-3-methoxyphenyl)ethyl)pyridine-3-sulfonamide] it was 5.87; in that of `CCN([C@H](c1ccc(F)c(OC)c1)C(F)(F)F)S(=O)(=O)c1cncc(C#N)c1` [Example 259, (R)-5-cyano-N-ethyl-N-(2,2,2-trifluoro-1-(4-fluoro-3-methoxyphenyl)ethyl)pyridine-3-sulfonamide], 6.61.
Same read-out and setting: in the case of `CCN(C(c1ncc(C)s1)C(F)(F)F)S(=O)(=O)c1cncc(C#N)c1` (stereo not shown) [Example 264, 5-Cyano-N-ethyl-N-(2,2,2-trifluoro-1-(5-methylthiazol-2-yl)ethyl)pyridine-3-sulfonamide] it was 4.96; in that of `Cc1ccc(S(=O)(=O)N(C)[C@H](c2ccc(C(F)(F)F)cc2)C(F)(F)F)cn1` [Example 266, (R)—N,6-dimethyl-N-(2,2,2-trifluoro-1-(4-(trifluoromethyl)phenyl)ethyl)pyridine-3-sulfonamide], 6.54.
Still for that read-out and setting: in the case of `CN([C@H](c1ccc(C(F)(F)F)cc1)C(F)(F)F)S(=O)(=O)c1cccnc1` [Example 267, (R)—N-methyl-N-(2,2,2-trifluoro-1-(4-(trifluoromethyl)phenyl)ethyl)pyridine-3-sulfonamide] it was 7.09.
